Data reported in US20110201564A1, “SUBSTITUTED 7-SULFANYLMETHYL, 7-SULFINYLMETHYL AND 7-SULFONYLMETHYL INDOLES AND USE THEREOF” (BAYER SCHERING PHARMA AKTIENGESELLSCHAFT, priority 2008, published 2011).
Read-outs that look alike come from different tables or passages of the source.

Columns and labels:
CYP3A4 = target: T1, CYP3A4 (Homo sapiens, UniProt P08684); test: CYP inhibition assay with human liver microsomes; type: in vitro ADME
T1 construct: using human liver microsomes (pool from various individuals); from tissue; host or cells: human liver microsomes (pool from various individuals)
T1 sequence (P08684 whole entry): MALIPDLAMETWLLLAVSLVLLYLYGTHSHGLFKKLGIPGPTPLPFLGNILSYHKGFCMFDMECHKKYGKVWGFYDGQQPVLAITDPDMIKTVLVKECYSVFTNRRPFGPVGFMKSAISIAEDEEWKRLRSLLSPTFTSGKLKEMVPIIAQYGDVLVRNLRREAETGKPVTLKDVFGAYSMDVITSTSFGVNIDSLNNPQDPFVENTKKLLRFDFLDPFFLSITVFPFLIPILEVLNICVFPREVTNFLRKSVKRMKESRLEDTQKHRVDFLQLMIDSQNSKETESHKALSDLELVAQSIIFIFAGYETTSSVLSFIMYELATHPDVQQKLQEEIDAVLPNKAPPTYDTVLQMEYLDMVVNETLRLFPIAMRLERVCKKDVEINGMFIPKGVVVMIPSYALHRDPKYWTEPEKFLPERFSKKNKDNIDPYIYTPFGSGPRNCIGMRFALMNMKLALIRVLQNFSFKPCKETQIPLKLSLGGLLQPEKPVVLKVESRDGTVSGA
Source text: Inhibitory properties of an active ingredient on the cytochromes P450 (CYP) of the human body may entail extensive clinical effects (drug interactions) because most of the prescribed medicaments are degraded (metabolized) by these enzymes. The ones involved in this are in particular the CYP isoenzymes of the 1A and 2C families, CYP2D6 and, with a proportion of almost 50%, CYP3A4. In order to preclude or minimize these possible drug interactions (Drug-Drug Interactions, DDI), the ability of substances to be able to inhibit CYP1A2, CYP2C8, CYP2C9, CYP2D6 and CYP3A4 in humans is investigated using human liver microsomes (pool from various individuals). This takes place by measuring CYP isoform-specific metabolites formed from standard substrates such as, for example, phenacetin, amodiaquin, diclofenac, dextromethorphan, midazolam and testosterone. The inhibitory effects are investigated at six different concentrations of the test compounds (1.5, 3.1, 6.3, 12.5, 25 and 50 μM as maximum concentration or 0.6, 1.3, 2.5, 5, 10 and 20 μM as maximum concentration), comparing with the extent of the CYP isoform-specific metabolite formation of the standard substrates in the absence of the test compounds, and calculating the corresponding IC50 values. CYP isoform-specific standard inhibitors such as, for example, fluvoxamine, quercetin, sulfaphenazole, fluoxetine and ketoconazole serve as control of the results obtained. In order to obtain indications of the possible mechanism-based inhibitors (MBI) on CYP3A4, the human liver microsomes are incubated in the presence of the inhibitor to be investigated for 30 minutes before the addition of midazolam or testosterone as standard substrates of CYP3A4. A reduction in the IC50 obtained by comparison with the mixture without preincubation serves as an indicator of a mechanism-based inhibition. Mibefradil serves as positive control.
The incubations of the standard substrates with human liver microsomes (23-233 μg/mL) in the presence of the test compound (as potential inhibitor) are carried out in 96-well plates in a workstation (Tecan, Genesis, Crailsheim, Germany) at 37° C. The incubation times are 15-20 minutes. The test compounds are preferably dissolved in acetonitrile (1.0 or 2.5 mM stock solution). The 96-well plates are produced by sequential addition of a stock solution of NADP+, EDTA, glucose 6-phosphate and glucose-6-phosphate dehydrogenase in phosphate buffer (pH 7.4), the test compound, and a solution of standard substrate and human liver microsomes in phosphate buffer (pH 7.4). The total volume is 200 μl. The corresponding control incubations with and without standard inhibitor also take place on the 96-well plate. The incubations are stopped after the respective incubation time by adding 100 μl of acetonitrile in which there is a suitable internal standard. Precipitated proteins are removed by centrifugation (3000 rpm, 10 minutes, 10° C.). The resulting supernatants of the respective plates are combined on one plate and analyzed by LC-MS/MS. The […] values are generated from the resulting measured data and used to assess the inhibitory potential of the test compound.

[1] = target: T2, progesterone receptor (PR) (Homo sapiens, UniProt P06401); test: Cellular in vitro assay, GAL4-PR chimera luciferase reporter in CHO K1 cells (selectivity); type: cell-based; conditions: antagonism vs progesterone; CHO K1 GAL4-PR LBD luciferase reporter
T2 construct: of the progesterone receptor (PR, amino acids 680-933); expressed in transfected cells; host or cells: CHO K1
T2 sequence (P06401 680-933): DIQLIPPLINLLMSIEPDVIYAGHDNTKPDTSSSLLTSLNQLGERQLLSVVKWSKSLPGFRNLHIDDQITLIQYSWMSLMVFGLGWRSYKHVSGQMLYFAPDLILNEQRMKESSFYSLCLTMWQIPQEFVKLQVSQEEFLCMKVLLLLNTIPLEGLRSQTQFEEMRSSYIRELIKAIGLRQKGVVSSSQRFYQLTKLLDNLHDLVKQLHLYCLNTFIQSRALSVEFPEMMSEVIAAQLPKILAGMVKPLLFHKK
Source text: (§1) 1. Cellular In Vitro Assay to Determine the Inhibitory MR Activity and MR Selectivity Compared with Other Steroid Hormone Receptors
(§2) Antagonists of the human mineralocorticoid receptor (MR) are identified, and the activity of the compounds described herein is quantified with the aid of a recombinant cell line. The cell is originally derived from a hamster ovary epithelial cell (Chinese Hamster Ovary, CHO K1, ATCC: American Type Culture Collection, VA 20108, USA).
(§3) An established chimera system in which the ligand-binding domains of human steroid hormone receptors are fused to the DNA-binding domain of the yeast transcription factor GAL4 is used in this CHO K1 cell line. The GAL4-steroid hormone receptor chimeras produced in this way are cotransfected and stably expressed with a reporter construct in the CHO cells.
(§4) To generate the GAL4-steroid hormone receptor chimeras, the GAL4 DNA-binding domain (amino acids 1-147) from the vector pFC2-dbd (from Stratagene) is cloned with the PCR-amplified ligand-binding domains of the mineralocorticoid receptor (MR, amino acids 734-985), of the progesterone receptor (PR, amino acids 680-933) and of the androgen receptor (AR, amino acids 667-919) into the vector pIRES2 (from Clontech). The reporter construct, which comprises five copies of the GAL4 binding site upstream of a thymidine kinase promoter, leads to expression of firefly luciferase (Photinus pyralis) after activation and binding of the GAL4-steroid hormone receptor chimeras by the respective specific agonists aldosterone (MR), dexamethasone (GR), progesterone (PR) and dihydrotestosterone (AR).
(§5) The MR, PR and AR cells are plated out in medium (Optimem, 2.5% FCS, 2 mM glutamine, 10 mM HEPES) in 96- (or 384- or 1536-)well microtiter plates on the day before the assay and are kept in a cell incubator (96% humidity, 5% v/v CO2, 37° C.). On the day of the assay, the substances to be tested are taken up in the abovementioned medium and added to the cells. About 10 to 30 minutes after addition of the test substances, the respective specific agonists of the steroid hormone receptors are added. After a further incubation time of 5 to 6 hours, the luciferase activity is measured with the aid of a video camera. The measured relative light units as a function of the substance concentration result in a sigmoidal stimulation curve. The IC50 values are calculated with the aid of the GraphPad PRISM computer program (Version 3.02).

[2] = target: T3, human mineralocorticoid receptor (MR) (Homo sapiens, UniProt P08235); test: Cellular in vitro assay, GAL4-MR chimera luciferase reporter in CHO K1 cells (inhibitory MR activity); type: cell-based; conditions: antagonism vs aldosterone; CHO K1 GAL4-MR LBD luciferase reporter
T3 construct: expressed in transfected cells; host or cells: CHO K1
T3 sequence (P08235 734-984 limits assumed): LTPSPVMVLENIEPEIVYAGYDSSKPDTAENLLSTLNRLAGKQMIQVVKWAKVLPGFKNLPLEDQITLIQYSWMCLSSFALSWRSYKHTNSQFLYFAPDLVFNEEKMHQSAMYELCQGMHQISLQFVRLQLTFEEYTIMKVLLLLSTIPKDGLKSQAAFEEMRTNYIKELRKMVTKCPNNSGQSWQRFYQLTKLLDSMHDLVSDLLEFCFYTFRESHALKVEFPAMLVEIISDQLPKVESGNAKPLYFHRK
Source text: as §1, §2, §3, §4, §5

androgen receptor (AR) = target: T4, androgen receptor (AR) (Homo sapiens, UniProt P10275); test: Cellular in vitro assay, GAL4-AR chimera luciferase reporter in CHO K1 cells (selectivity); type: cell-based; conditions: antagonism vs dihydrotestosterone; CHO K1 GAL4-AR LBD luciferase reporter
T4 construct: of the androgen receptor (AR, amino acids 667-919); expressed in transfected cells; host or cells: CHO K1
T4 sequence (P10275 668-920): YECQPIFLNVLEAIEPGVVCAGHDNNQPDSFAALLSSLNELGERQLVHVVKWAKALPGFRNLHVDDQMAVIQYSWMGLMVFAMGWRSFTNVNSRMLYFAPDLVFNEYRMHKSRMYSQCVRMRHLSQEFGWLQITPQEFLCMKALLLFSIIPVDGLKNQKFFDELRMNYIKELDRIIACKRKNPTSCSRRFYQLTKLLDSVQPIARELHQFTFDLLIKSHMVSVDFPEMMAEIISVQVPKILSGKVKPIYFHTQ
Source text: as §1, §2, §3, §4, §5

[3] = 30 min preincubation with test compound before substrate, read-out: CYP 3A4 Preincubation, 30 min.
[4] = without preincubation, read-out: CYP 3A4 Coincubation

| SMILES | IC50 (CYP3A4; [3]) [nM] | IC50 (CYP3A4; [4]) [nM] | IC50 [1] [nM] | IC50 [2] [nM] | IC50 (androgen receptor (AR)) [nM] |
| --- | --- | --- | --- | --- | --- |
| CS(=O)(=O)Cc1cccc2c(C(c3ccc(Cl)cc3)C3CC3C#N)c[nH]c12 (stereo not shown) [Example 276, 2-[(4-Chlorophenyl){7-[(methylsulfonyl)methyl]-1H-indol-3-yl}methyl]cyclopropanecarbonitrile] | 18200 | > 20000 | 10000 | 24 | – |
| CS(=O)(=O)Cc1cccc2c(C(c3ccc(C(F)(F)F)cc3)C3CC3)c[nH]c12 (stereo not shown) [Example 244, 3-{Cyclopropyl[4-(trifluoromethyl)phenyl]methyl}-7-[(methylsulfonyl)methyl]-1H-indole] | > 20000 | > 20000 | – | 170 | – |
| C[S+]([O-])Cc1cccc2c(C(CCC#N)c3ccc(Cl)cc3)c[nH]c12 (single isomer, unassigned) [Example 78-4, 4-(4-Chlorophenyl)-4-{7-[(methylsulfinyl)methyl]-1H-indol-3-yl}butanonitrile] | – | – | 7910 | 150 | 8890 |
| CCC(CCC#N)(c1ccc(Cl)cc1)c1c[nH]c2c(C[S+](C)[O-])cccc12 (mixture of isomers) [Example 163, 4-(4-Chlorophenyl)-4-{7-[(methylsulfinyl)methyl]-1H-indol-3-yl}hexanonitrile] | – | – | 2720 | 29 | 4760 |
| CS(=O)(=O)Cc1cccc2c(C3(C4CC4)CCc4cc(F)ccc43)c[nH]c12 (single isomer, unassigned) [Example 107-1, 3-(1-Cyclopropyl-5-fluoro-2,3-dihydro-1H-inden-1-yl)-7-[(methylsulfonyl)methyl]-1H-indole] | – | – | 9160 | 20 | 2160 |
| CS(=O)(=O)Cc1cccc2c(C(c3ccc(Cl)cc3Cl)C3CC3(F)F)c[nH]c12 (single isomer, unassigned) [Example 325-2, 3-[(2,4-Dichlorophenyl)(2,2-difluorocyclopropyl)methyl]-7-[(methylsulfonyl)methyl]-1H-indole] | – | – | 6660 | 59 | 5250 |
| CSCc1cccc2c(C(CCC#N)c3ccc(Cl)cc3F)c[nH]c12 (single isomer, unassigned) [Example 38-1, 4-(4-Chloro-2-fluorophenyl)-4-{7-[(methylsulfanyl)methyl]-1H-indol-3-yl}butanonitrile] | – | – | 1510 | 16 | 1120 |
| CCC(CCC#N)(c1ccc(Cl)cc1)c1c[nH]c2c(CS(C)(=O)=O)cccc12 (single isomer, unassigned) [Enantiomer 172-1, 4-(4-Chlorophenyl)-4-{7-[(methylsulfonyl)methyl]-1H-indol-3-yl}hexanonitrile] | – | – | 4310 | 7 | 3800 |
| CSCc1cccc2c(C(C)(c3ccc(C(F)(F)F)cc3)C3CC3C#N)c[nH]c12 (stereo not shown) [Example 177, 2-(1-{7-[(Methylsulfanyl)methyl]-1H-indol-3-yl}-1-[4-(trifluoromethyl)phenyl]ethyl)cyclopropanecarbonitrile] | – | – | 5780 | 77 | 1940 |
| CSCc1cc(F)cc2c(C(CCC#N)c3ccc(Cl)cc3)c[nH]c12 (stereo not shown) [Example 43, 4-(4-Chlorophenyl)-4-{5-fluoro-7-[(methylsulfanyl)methyl]-1H-indol-3-yl}butanonitrile] | – | – | 1980 | 78 | 2920 |
| CS(=O)(=O)Cc1cccc2c(C(CCC#N)c3ccc4ccccc4c3)c[nH]c12 (stereo not shown) [Example 69, 4-{7-[(Methylsulfonyl)methyl]-1H-indol-3-yl}-4-(naphthalen-2-yl)butanonitrile] | – | – | 6590 | 420 | 5220 |
| CSCc1cc(F)cc2c(C(c3ccc(C)cc3)C3CC3C#N)c[nH]c12 (stereo not shown) [Example 260, 2-[{5-Fluoro-7-[(methylsulfanyl)methyl]-1H-indol-3-yl}(4-methylphenyl)methyl]cyclopropane-carbonitrile] | – | – | 5230 | 39 | 9030 |
| CS(=O)(=O)Cc1c(F)ccc2c(C(CCC#N)c3ccc(Cl)cc3)c[nH]c12 (stereo not shown) [Example 71, 4-(4-Chlorophenyl)-4-{6-fluoro-7-[(methylsulfonyl)methyl]-1H-indol-3-yl}butanonitrile] | – | – | 4470 | 320 | 3990 |
| CSCc1cc(F)cc2c(C3(C4CC4)CCc4cc(F)ccc43)c[nH]c12 (stereo not shown) [Example 94, 3-(1-Cyclopropyl-5-fluoro-2,3-dihydro-1H-inden-1-yl)-5-fluoro-7-[(methylsulfanyl)methyl]-1H-indole] | – | – | 3140 | 160 | 1600 |
